The subject of data set [1] is PDGFR-β. More on the design: method as in PMID 22935731. The conditions noted are these: 1 mM ATP; read-out: Biochemical IC50 (95% confidence limits); cited from earlier work.
A further data set deals with Aurora C. More on the design: method as in PMID 22935731. The conditions noted are these: Aurora C autophosphorylation, nocodazole-arrested HeLa cells; read-out: Cellular PD marker IC50 (95% confidence limits); cited from earlier work.
Data set [2] deals with FLT-3. Also noted: method as in PMID 22935731. The conditions noted are these: 1 mM ATP; read-out: Biochemical IC50 (95% confidence limits); cited from earlier work.
Data set [3] relates to FLT-3. Also noted: method as in PMID 22935731. Particulars: FLT-3 constitutively phosphorylated in SEM cells, 60 min exposure; read-out: Cellular PD marker IC50 (95% confidence limits); cited from earlier work.
Another data set deals with c-KIT. More on the design: method as in PMID 22935731. Particulars: 1 mM ATP; read-out: Biochemical IC50 (95% confidence limits); cited from earlier work.
In a further data set the test system is Aurora kinase B. Nature of the data set: pHH3 immunohistochemistry in skin punch biopsies. It counts as in vivo, human. The conditions noted are these: 8 mg i.v. and 60‒340 mg PO BID.
For data set [4], the system named is PDGFR-β. More on the design: method as in PMID 22935731. Particulars: PDGFR-β cellular phosphorylation, ligand stimulated; read-out: Cellular PD marker IC50 (95% confidence limits); cited from earlier work.
A further data set has as its system VEGFR2. More on the design: method as in PMID 22935731. Particulars: cited from earlier work.
The test system of data set [5] is Aurora B. Also noted: method as in PMID 22935731. Particulars: 1 mM ATP; read-out: Biochemical IC50 (95% confidence limits); cited from earlier work.
Data set [6] has as its system TEL:VEGFR1 catalytic domain fusion. Also noted: method as in PMID 22935731. Particulars: BaF3 cells expressing TEL:VEGFR1, proliferation as surrogate readout; read-out: Cellular PD marker IC50 (95% confidence limits); cited from earlier work.
Data set [7] concerns Aurora A. Also noted: method as in PMID 22935731. Particulars: Aurora A autophosphorylation, nocodazole-arrested HeLa cells; read-out: Cellular PD marker IC50 (95% confidence limits); cited from earlier work.
For another data set, the system named is VEGFR3. More on the design: method as in PMID 22935731. Particulars: 1 mM ATP; read-out: Biochemical IC50 (95% confidence limits); cited from earlier work.
The subject of a further data set is PDGFR-α. More on the design: method as in PMID 22935731. Particulars: 1 mM ATP; read-out: Biochemical IC50 (95% confidence limits); cited from earlier work.
The test system of data set [8] is Aurora A. More on the design: method as in PMID 22935731. Particulars: 1 mM ATP; read-out: Biochemical IC50 (95% confidence limits); cited from earlier work.
Data set [9] concerns Aurora B. Also noted: method as in PMID 22935731. Particulars: phosphorylation of histone H3, read-out: Cellular PD marker IC50 (95% confidence limits); cited from earlier work.

Where two headings read alike, the source gives them in different places.

The term IC50 denotes the concentration that inhibits the measured activity by half.

For `Nc1ncc(-c2cnn(CCO)c2)c2scc(-c3ccc(NC(=O)Nc4cccc(F)c4)cc3)c12` [ilorasertib, Ilorasertib], the concentration for half-maximal inhibition (IC50) was […] in the data set on PDGFR-β [1]; […] with Aurora C; […] with FLT-3 [2]; […] in the data set on FLT-3 [3]; 20 nM with c-KIT; 11 nM in the data set with PDGFR-β [4]. In addition, the half-maximal inhibitory concentration (IC50) is 5 nM in the data set on VEGFR2 (VEGFR2 cellular phosphorylation, ligand stimulated, read-out: Cellular PD marker IC50 (95% confidence limits)); […] in the data set with Aurora B [5]; 0.3 nM in [6]; […] in the data set with Aurora A [7]; 43 nM with VEGFR3; 11 nM with PDGFR-α. Besides, the IC50 was […] with Aurora A [8] and […] in the data set with Aurora B [9]. The “pHH3 in epidermis with increasing exposure” value in the data set on Aurora kinase B is given as “dose-dependent decreases of pHH3”. In the data set on VEGFR2 (cellular assays), the “Potency of VEGFR2 inhibition relative to Aurora kinase B” value is “two- to five-fold more potent”.

Values taken from paper PMC5931107, “Clinical pharmacodynamic/exposure characterisation of the multikinase inhibitor ilorasertib (ABT-348) in a phase 1 dose-escalation trial” (British Journal of Cancer, 2018).
